Results on ten compounds are retold here after US20020026052A1, “3-cyanoquinolines, 3-cyano-1,6-naphthyridines, and 3-cyano-1,7-naphthyridines as protein kinase inhibitors” (American Home Products Corporation, priority 2000, published 2002).

For data set [1], the system named is Human adenocarcinoma cell line LoVo. Description: Cell Based Screen for Inhibitors of Raf Kinase, LoVo. Particulars: four days incubation, SRB. How it is done: (§1) Cell Based Screen for Inhibitors of Raf Kinase.
(§2) Cell Lines: Human adenocarcinoma cell line LoVo which is known to be growth inhibited by low nM concentrations of a reference standard inhibitor of Ras and human adenocarcinoma cell line CaCo-2, which is known to be growth resistant to the same reference compound. Cell Media: RPMI 1640 with 10% Fetal Bovine Serum supplemented with L-glutamine and Pennicilin/Streptomycin. Compounds: Supplied usually as a 10 mM stock in 100% DMSO. Normal Saline: 150 mM NaCl Trichloroacetic Acid (TCA): 50% (w/v) in water Sulforhodamine B (SRB): 0.4% (w/v) in 1% Acetic Acid Tris Base: 10 mM in water
(§3) Cells are plated at 2000 cells per well for cell line LoVo and 1500 cells for cell line CaCo-2 in 96 well plates. Cells are plated in media (200 μl) and allowed to adhere overnight at 37 ° C. At 24 hours post plating, compounds are added directly at a volume of 0.5 μl. For the qualitative screen (compounds screened at 25 μM) compound is added directly to cells. For the quantitative screen, compound is first diluted in DMSO to generate concentrations of compound or reference standard of: 1, 5, 10 and 25 μM. It is advisable to make the dilutions in an identical 96 well plate so that compounds may be added using a multichannel micropipettor set at 0.5 μl. The cells are then incubated for four days after which the media is removed using a 12 well manifold by first tipping the plate forward at a 45 degree angle and then inserting the manifold in an upright orientation to prevent the ti
(§4) of the manifold from disturbing cells at the bottom of the plate. 200 μl of normal saline is then added to each well using an 8 well multichannel pipettor, followed by the careful addition of 50 μl of 50% TCA. The plates are then incubated for 2 hours at 4 ° C, after which the supernatant is removed using the same technique as above and the plated washed twice with 200 ul water. The plates are then air dried and 50 μl of SRB stock solution is carefully added so that the entire bottom of each well is covered. This again may be used using an 8 well multichannel pipettor. The SRB is incubated with fixed cells for 15 minutes at room temperature after which the SRB is removed with the manifold as described above and the plates washed twice with 350 μl of 1% acetic acid per well each time.The plates are then air dried after which the bound SRB is released from protein by the addition of 200 µl of Tris base. Resolubilizing the SRB is aided by placing the plates on a rotator for 15-30 minutes. The absorbance of each well is determined at 550 or 562 nm using a microtiter plate reader.
(§5) Each compound or dilution thereof is performed in triplicate. Outliers are identified by visual inspection of the data. Each plate should have a “0” control (vehicle only). […] Quantitative Assay: A standard curve is constructed by plotting the concentration of compound against the average absorbance calculated at that concentration. A curve is plotted and the concentration at which the curve passes through the 50% the absorbance mark seen in the “0” control well is the IC50 calculated for that compound. Multiple entries for a given compound indicate that it was tested multiple times.

Another data set has as its target T1, Raf1 (c-Raf) (Homo sapiens, UniProt P04049).
T1 construct: Sf9 insect cell lysate containing full length 6 his-tagged recombinant human c—Raf; 6His; host or cells: Sf9 insect cells (c-Raf, used as lysate); E. coli (GST-MEK1, GST-MAPK)
The experiment in a line: Raf1 Kinase Cascade Assay. Format: biochemical. How it is done: Raf1 Kinase Cascade Assay Procedure
(Specific Activity: ˜200 U/ml). Human Non-active Mek-1—GST and human GST-MAP kinase (recombinant proteins produced in E. coli).
Stock Solutions Raf Assay:
Assay Dilution Buffer (ADB): 2 OmM MOPS, pH 7.2, 25 mM B-glycerol phosphate, mM EGTA, 1 mM sodium orthovanadate, 1 mM dithiothreitol. Magnesium/ATP Cocktail: 500 AM cold ATP and 75 mM magnesium chloride in ADB.
Active Kinase: Human Active c—Raf: Use at 0.4 U per assay point. Non-active GST-MEK1: Use at 0.1, ug per assay point. Non-active GST-p42 MAP Kinase: Use at 1.0 tg per assay point.
TBST—Tris (50 mM, pH 7.5)-1H-, NaCl (150 mM), Tween-20 (0.05%) Superblock (Pierce) Anti—GST Ab (Pharmacia) Anti-Phospho MAPK (Sigma) Anti-Mouse Ab/Europium conjugate (Wallac)
Assay Procedure: First Stage: c—Raf Dependent Activation of GST-MEK and GST-MAPK Add […] of ADB per assay (i.e. per well of a 96 well plate) Add 10 ml of 0.5 mM cold ATP and 75 mM magnesium chloride in ADB. Add 2 ml of c—Raf (0.4 U/assay), in conjunction with 1.6 ml non-active MEKI (0.4 mg/assay). Add 4 ml of non-active GST-p42 MAP Kinase (1.0 mg/assay). Incubate for 60 minutes at 30° C. in a shaking incubator. Transfer this mixture to an anti—GST Ab coated 96 well plate (Nunc Immunosorb plates coated o/n with a—GST, then blocked with Pierce Superblock). Incubate for 60 minutes at 30° C. in a shaking incubator Wash 3×with TBST, add Anti-Phospho MAPK (Sigma) (1:3000)-1H-Incubate for 60 minutes at 30° C. in a shaking incubator Wash 3×with TBST, add Anti-Mouse Ab/Europium conjugate (Wallac) (1:500)-1H-Incubate for 60 minutes at 30° C. in a shaking incubator Wash 3×with TBST, Read plates in Wallac Victor model Plate Reader. Collect data analyze in Excel for single point and IC50 determinations.
IC50 determinations - done on compounds from single point assays with >80% inhibition. Typically Raf-1 assay is run at compound concentrations from 10 μM to 30 nM in half log dilutions. (% inhibition is determined for each compound concentration).

For data set [2], the system named is human adenocarcinoma cell line CaCo-2. Description: Cell Based Screen for Inhibitors of Raf Kinase, CaCo-2. The conditions noted are these: four days incubation, SRB. The procedure:
as §1, §2, §3, §4, §5

Several values for one entry are separate records, joined by “and”; a condition that tells them apart may be missing. Identical values can stand only once. Bounds are passed on as bounds.

On to `Cn1ccnc1Sc1ccc(Nc2c(C#N)cnc3cc(-c4ccc(CN5CCOCC5)cn4)ccc23)cc1Cl` [Example 187, 4-{3-Chloro-4-[(1-methyl-1H-inidazol-2-yl)sulfanyl]anilino}-7-[5-(4-morpholinylmethyl)-2-pyridinyl]-3-quinolinecarbonitrile], for which the melting point is 225 to 227 °C. In addition, in data set [1], the midpoint of inhibition, the IC50, lay at 9 nM.
`Cn1ccnc1Sc1ccc(Nc2c(C#N)cnc3cc(-c4csc(CN5CCOCC5)c4)ccc23)cc1Cl` [Example 33, 4-{3-chloro-4-[(1-methyl-1H-imidazol-2-yl)sulfanyl]anilino}-7-[5-(4-morpholinylmethyl)-3-thienyl]-3-quinolinecarbonitrile] showed a melting point of 110 to 113 °C. Further, the midpoint of inhibition in data set [1] (Homo sapiens, LoVo, 96 h), the IC50, lay at 6 nM. For the same compound, the IC50 on Raf1 (c-Raf) stood at 6 nM.
`Cn1ccnc1Sc1ccc(Nc2c(C#N)cnc3cc(-c4ccc(CN5CCNCC5)cc4)ccc23)cc1Cl` [Example 97, 4-({3-chloro-4-[(1-methylimidazol-2-yl)sulfanyl]phenyl}amino)-7-[4-(1-piperazinylmethyl)phenyl]-3-quinolinecarbonitrile] registered a melting point of 140 to 142 °C. In data set [1] (Homo sapiens, LoVo, 96 h), this compound displayed an IC50 of 33 nM. The compound also came in with an IC50 against Raf1 (c-Raf) of 16 nM. For the same compound, in data set [2] (Homo sapiens, Caco-2, 96 h), the IC50 is more than 1000 nM.
In the case of “4-({3-Chloro-4-[(1-methyl-1H-imidazol-2-yl) sulfanyl]phenyl }amino)-7-[5-(1-pyridinyl]-3-quinolinecarbonitrile [Example 180]”, the IC50 in data set [1] is 5.6 nM; against Raf1 (c-Raf), 3.7 nM; in data set [2], 930 nM.
`Cn1ccnc1Sc1ccc(Nc2c(C#N)cnc3cc(-c4ccc(CN5CCCCC5)o4)ccc23)cc1Cl` [Example 155, 4-{3-Chloro-4-[(1-methyl-1H-imidazol-2-yl)sulfanyl]anilino}-7-[5-(1-piperidinylmethyl)-2-furyl]-3-quinolinecarbonitrile] came in with a melting point of 214 to 215 °C. Also, at Raf1 (c-Raf), half-maximal inhibition (IC50) required 20 nM.
Compound `Cn1ccnc1Sc1ccc(Nc2c(C#N)cnc3cc(-c4ccc(CN5CCCCC5)cc4)ccc23)cc1Cl` [Example 136, 4-{3-Chloro-4-[(1-methyl-IH-imidazol-2-yl)sulfanyl]anilino}-7-[4-(1-piperidinylmethyl)phenyl]-3-quinolinecarbonitrile] gave a melting point of 158 to 160 °C. The midpoint of inhibition in data set [1] (Homo sapiens, LoVo, 96 h), the IC50, lay at 11 nM. Also, the IC50 at Raf1 (c-Raf) is 2.5 nM and 1.8 nM. In addition, the IC50 in data set [2] (Homo sapiens, Caco-2, 96 h) is more than 1000 nM.
As to `Cn1ccnc1Sc1ccc(Nc2c(C#N)cnc3cc(-c4ccc(N5CCCCC5)nc4)ccc23)cc1Cl` [Example 211, 4-({3-Chloro-4-[(1-methyl-iH-imidazol-2-yl)sulfanyl]phenyl}amino)-7-[6-(1-piperidinyl)-3-pyridinyl]-3-quinolinecarbonitrile], the IC50 in data set [1] was 5.3 nM; on Raf1 (c-Raf), 6 nM; in data set [2] it was more than 1000 nM.
Turning to “4-{3-Chloro-4-[(1-methyl-1H-imidazol-2-yl) sulfanyl]anilino }-7-{5-[(4-ethyl-1-piperazinyl) methyl]-2-furyl }-3-quinolinecarbonitrile [Example 156]”, the half-maximal inhibitory concentration (IC50) in data set [1] is 5.6 nM; against Raf1 (c-Raf), 9 nM and 12 nM; in data set [2], 1000 nM.
With `Cn1ccnc1Sc1ccc(Nc2c(C#N)cnc3cc(-c4cnc(N5CCOCC5)nc4)ccc23)cc1Cl` [Example 191, 4-{3-Chloro-4-[(1-methyl-1H-imidazol-2-yl)sulfanyl]anilino}-7-[2-(4-morpholinyl)-5-pyrimidinyl]-3-quinolinecarbonitrile], the melting point is more than 250 °C. The compound further gave an IC50 in data set [1] (Homo sapiens, LoVo, 96 h) of 30 nM. The same compound registered an IC50 against Raf1 (c-Raf) of 1 nM. In data set [2] (Homo sapiens, Caco-2, 96 h), this compound yielded an IC50 of more than 10000 nM.
On to `Cn1ccnc1Sc1ccc(Nc2c(C#N)cnc3cc(-c4ccc(CN5CCOCC5)cc4)ccc23)cc1Cl` [Example 138, 4-({3-Chloro-4-[(1-methyl-lH-imidazol-2-yl)sulfanyl]phenyl}amino)-7-{4-[(4-morpholinyl)methyl]phenyl}-3-quinolinecarbonitrile], for which the IC50 turned out to be 6.2 nM in data set [1], 5.6 nM on Raf1 (c-Raf) and 810 nM in data set [2].

In general, melting point refers to the temperature of the solid-liquid transition. In general, IC50 refers to the concentration needed to halve the response being measured.
